Active and inactive are the calls of the source.
How the values were obtained:
Beta-lactamase [1] = target: T1, Beta-lactamase (Pseudomonas aeruginosa, UniProt Q79MP6); experiment: […] counterscreen for selective VIM-2 inhibitors: dose response biochemical high throughput screening assay to identify inhibitors of IMP-1 metallo-beta-lactamase.
Beta-lactamase [2] = target: T1, Beta-lactamase; experiment: inhibition of IMP-1 beta-lactamase activity – biochemical, epi-absorbance, selectivity assay for VIM-2 inhibitor project, dose response (AID 1920)
Beta-lactamase [3] = target: Beta-lactamase (Salmonella choleraesuis (strain SC-B67), UniProt Q5J463); experiment: Epi-absorbance-based counterscreen for selective VIM-2 inhibitors: dose response biochemical high throughput screening assay to identify inhibitors of TEM-1 serine-beta-lactamase.
Major prion protein = Major prion protein (Homo sapiens, UniProt P04156); assay type: functional, cell-based
Genome polyprotein = Genome polyprotein (dengue virus type 2, UniProt P29990); experiment: flavivirus cap methylation enzyme inhibition – biochemical, confirmation dose response, primary screen (AID 588689); assay type: functional
Protein skinhead-1 = target: T2, Protein skinhead-1 (Caenorhabditis elegans, UniProt P34707); assay type: functional
T2 sequence (P34707 whole entry): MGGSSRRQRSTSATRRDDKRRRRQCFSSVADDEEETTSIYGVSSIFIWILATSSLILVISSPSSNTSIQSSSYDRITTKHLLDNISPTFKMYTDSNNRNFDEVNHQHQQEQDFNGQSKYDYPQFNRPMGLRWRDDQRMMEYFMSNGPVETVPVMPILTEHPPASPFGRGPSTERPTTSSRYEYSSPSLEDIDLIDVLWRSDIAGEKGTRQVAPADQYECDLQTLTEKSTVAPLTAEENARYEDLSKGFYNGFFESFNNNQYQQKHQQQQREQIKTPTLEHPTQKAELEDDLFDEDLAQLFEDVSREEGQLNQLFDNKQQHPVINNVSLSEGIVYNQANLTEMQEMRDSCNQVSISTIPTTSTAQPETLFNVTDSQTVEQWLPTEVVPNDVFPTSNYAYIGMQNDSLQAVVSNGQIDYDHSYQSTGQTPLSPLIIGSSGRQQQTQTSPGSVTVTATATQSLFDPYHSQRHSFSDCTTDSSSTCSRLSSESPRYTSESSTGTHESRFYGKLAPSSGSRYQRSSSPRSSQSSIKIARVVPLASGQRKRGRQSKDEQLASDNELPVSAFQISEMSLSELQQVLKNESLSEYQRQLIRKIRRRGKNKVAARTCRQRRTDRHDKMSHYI

[4] = target: T3, Rac GTPase-activating protein 1 (Homo sapiens, UniProt Q9H0H5); experiment: blockers of MgcRacGAP-driven Rac1 GTP hydrolysis – biochemical, ADP Hunter fluorescence, primary and confirmatory, confirmation (AID 624330); assay type: functional
T3 sequence (Q9H0H5 whole entry): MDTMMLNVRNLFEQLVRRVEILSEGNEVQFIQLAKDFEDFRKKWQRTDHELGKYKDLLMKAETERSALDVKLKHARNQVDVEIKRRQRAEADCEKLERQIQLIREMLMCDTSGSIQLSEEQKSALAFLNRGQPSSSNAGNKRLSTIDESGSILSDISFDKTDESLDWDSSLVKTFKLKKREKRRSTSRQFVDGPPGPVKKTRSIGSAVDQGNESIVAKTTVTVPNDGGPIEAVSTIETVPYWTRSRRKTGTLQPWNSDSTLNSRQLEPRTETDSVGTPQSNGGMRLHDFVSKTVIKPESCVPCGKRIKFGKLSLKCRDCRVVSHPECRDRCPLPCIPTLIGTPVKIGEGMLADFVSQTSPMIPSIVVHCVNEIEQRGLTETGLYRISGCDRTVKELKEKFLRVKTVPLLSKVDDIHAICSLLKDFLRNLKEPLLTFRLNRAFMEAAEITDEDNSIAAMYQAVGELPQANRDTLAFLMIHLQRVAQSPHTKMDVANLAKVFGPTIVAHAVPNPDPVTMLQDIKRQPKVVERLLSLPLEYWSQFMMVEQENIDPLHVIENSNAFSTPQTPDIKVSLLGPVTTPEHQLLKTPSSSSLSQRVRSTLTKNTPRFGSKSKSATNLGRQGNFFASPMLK

[5] = target: Eukaryotic translation initiation factor 4H (Homo sapiens, UniProt Q15056); experiment: eIF4H binding inhibition – biochemical, uHTS, fluorescence polarization, translation initiation inhibitor project, primary screen (AID 2012)
[6] = viability loss in HeLa cells – cytotoxicity control for MgcRacGAP inhibitor project, dose response (AID 624300); assay type: functional
[7] = target: Matrix metalloproteinase-14 (Homo sapiens, UniProt P50281); experiment: Dose Response confirmation of uHTS hits for a small molecule inhibitors of MT1-MMP activation in a fluorescence assay set 1.; assay type: functional
[8] = target: Polyadenylate-binding protein 1 (Homo sapiens, UniProt P11940); experiment: blockers of PABP interaction with poly(A) – biochemical, fluorescence polarization, […] (AID 2014)
Nonstructural protein 1 = Nonstructural protein 1 (Influenza A virus, UniProt Q194T2); assay type: functional, Influenza A virus (A/California/07/2009(H1N1))
[9] = Counterscreen for inhibitors of Trypanosoma brucei methionyl tRNA synthetase (MetRS): Luminescence-based cell-based high throughput dose response assay to identify compounds that are cytotoxic to Jurkat human T lymphocyte cells.; assay type: functional
[10] = Late stage counterscreen for inhibitors of Trypanosoma brucei methionyl tRNA synthetase (MetRS): Luminescence-based cell-based high throughput dose response assay to identify compounds that are cytotoxic to Jurkat human T lymphocyte cells.; assay type: functional
[11] = target: T4, Methionyl-tRNA synthetase, putative (Trypanosoma brucei brucei, UniProt Q38C91); assay type: functional, Trypanosoma brucei brucei strain 927/4 GUTat10.1
T4 sequence (Q38C91 whole entry): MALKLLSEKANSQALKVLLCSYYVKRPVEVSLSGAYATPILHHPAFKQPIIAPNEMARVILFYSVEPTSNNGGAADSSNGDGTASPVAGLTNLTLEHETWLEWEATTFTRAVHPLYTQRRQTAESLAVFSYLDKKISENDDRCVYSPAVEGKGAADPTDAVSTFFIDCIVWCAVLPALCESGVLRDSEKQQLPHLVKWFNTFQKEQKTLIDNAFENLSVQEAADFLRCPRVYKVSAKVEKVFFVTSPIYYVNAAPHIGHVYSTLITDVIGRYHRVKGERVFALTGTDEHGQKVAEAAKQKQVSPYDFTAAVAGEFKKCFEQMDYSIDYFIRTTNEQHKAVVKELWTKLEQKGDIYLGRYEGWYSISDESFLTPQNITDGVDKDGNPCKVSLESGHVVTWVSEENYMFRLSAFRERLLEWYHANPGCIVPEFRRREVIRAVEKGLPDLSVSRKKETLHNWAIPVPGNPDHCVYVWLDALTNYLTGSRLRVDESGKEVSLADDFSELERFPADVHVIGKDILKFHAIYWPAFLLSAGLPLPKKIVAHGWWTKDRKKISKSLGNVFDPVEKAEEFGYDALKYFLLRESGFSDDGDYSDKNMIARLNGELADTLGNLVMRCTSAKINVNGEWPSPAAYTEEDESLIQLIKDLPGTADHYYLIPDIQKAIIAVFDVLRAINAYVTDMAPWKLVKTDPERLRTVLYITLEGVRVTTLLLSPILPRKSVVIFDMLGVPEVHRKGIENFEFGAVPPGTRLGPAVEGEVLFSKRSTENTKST

[12] = target: T4, Methionyl-tRNA synthetase, putative; assay type: functional, Trypanosoma brucei brucei strain 927/4 GUTat10.1; remark: listed apart in the source
[13] = target: Histone-lysine N-methyltransferase NSD2 (Homo sapiens, UniProt O96028); assay type: biochemical
[14] = target: Tyrosyl-DNA phosphodiesterase 2 (Homo sapiens, UniProt O95551); experiment: potency against TDP2 phosphodiesterase activity – biochemical, epi absorbance, IC50, dose response (AID 743297)
[15] = viability loss in human hepatoma cells – cell-based, CellTiter-Glo luminescence, cherry-pick, set 2, cytotoxicity control, dose response (AID 743395); assay type: functional
[16] = general mammalian cell viability loss – activator set, cherry-pick, cytotoxicity control for miR-122 modulator project, dose response (AID 720690); assay type: functional, cell-based;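 note: HEK293T human cells scored for general mammalian cytotoxicity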
[17] = activation of miR-122 Renilla sensor silencing – cell-based, Huh7 psiCHECK-miR122, Renilla luciferase, cherry-picked, dose response (AID 651956); assay type: functional;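 note: huh7 hepatoma cells stably carrying a psiCHECK-2 miR-122 sensor plasmid; renilla luciferase signal reporting endogenous miR-122 activity after 48 h compound exposure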

In the case of `CCCCc1cc(=O)oc2c3c(cc(OCC(=O)N4CCC[C@H]4C(=O)O)c12)OC(C)(C)CC3`, the IC50 (Beta-lactamase [1]) is reported as > 59.6 µM (inactive), the IC50 (Beta-lactamase [2]) is reported as > 59.6 µM (inactive) and the IC50 (Beta-lactamase [3]) is reported as > 59.6 µM (inactive).
In the case of `Fc1cccc2sc(Nc3nc4c(F)cccc4s3)nc12`, the IC50 (Major prion protein) is reported as 8.31 µM (active) and the IC50 (cells) is reported as > 138 µM (inactive).
With `CC1=C/C(=C(/c2cc(C)c(O)c(Br)c2)c2ccccc2S(=O)(=O)O)C=C(Br)C1=O` the IC50 (Genome polyprotein) was 38 µM (active), the IC50 (Protein skinhead-1) was 34.3 µM (active) and the IC50 [4] was 63.5 µM (active). For the same compound, the IC50 [5] was 8.28 µM (active), the CC50 [6] was 100 µM (active) and the IC50 [7] was 18.5 µM (active). For the same compound, the IC50 [8] was 6.81 µM (active) and the IC50 (Nonstructural protein 1) was 16.3 µM (active).
With `O=C(NCc1nc2ccccc2[nH]1)C1=C[C@@H](c2ccccc2)C[C@@H](OCc2ccc(CO)cc2)O1` the IC50 [9] was 81 µM (inactive), the IC50 [10] was > 83.3 µM (inactive) and the IC50 [11] was 2.08 µM (active). For the same compound, the IC50 [12] was 0.835 µM (active).
For `O=C1C=C(O)c2nc(O)ccc2C1=O`, the AC50 [13] was 13.1 µM (active) and the IC50 [14] was 80 µM (inactive).
With `COc1cc(NC(=O)c2csc(N)n2)cc(C(=O)Nc2cccc(C(F)(F)F)c2)c1.O=C(O)C(F)(F)F` the AbsAC35_uM [15] was 51.31 µM.
With `CCC(=O)N(C)C[C@H]1Oc2cc(C#Cc3ccccc3)ccc2S(=O)(=O)N([C@H](C)CO)C[C@H]1C` the AC50 [16] was 30.6 µM (active) and the AC50 [17] was 10.1 µM (active).

— ChEMBL document CHEMBL1201862, “PubChem BioAssay data set” (2004)
